{"source": "patent US20050137261A1", "about": "“Method for treating inflammatory bowel diseases” (MEIJI DAIRIES CORPORATION, priority 2003, published 2005)", "key": {"β7 positive cells": {"system": "β7 positive cells", "assay": "Immunohistochemical staining (LSAB) of large intestine sections, DSS colitis, anti-β7integrin", "format": "in vivo, C57/BL6 Mice", "settings": "large intestine frozen sections, DHNA administration group", "protocol": "(§1) C57/BL6 Mice (female, 8 weeks old) were employed. They were bred under SPF conditions, and then used in the test.\n(§2) 2.5% Dextran sodium sulfate (DSS, MW 50,000) was added to drinking water (distilled water) for mice, and the mice were allowed to drink the resultant water freely for 7 days (induction of colitis). Subsequently, DHNA was administered to the mice in the following manner.\n(§3) DHNA was dissolved in dimethyl sulfoxide (DMSO) (0.1 g/0.5 mL). The resultant neat solution, along with ascorbic acid for stabilizing DHNA (1%), was added to drinking water (distilled water) for mice, and the mice were allowed to drink the resultant water freely for 7 days. DHNA concentration was 0.6 mg/kg or 2 mg/kg. Distilled water to which DMSO and ascorbic acid had been added in equal amounts was employed as a control group.\n(§4) The large intestine was removed from each mouse, and fixed with periodate-lysine-paraformaldehyde (PLP), whereby frozen slices were prepared. Through use of the thus-obtained frozen sections, immunohistochemical staining using labeled streptavidin-biotin (LSAB) and HE-staining were performed. In the immunohistochemical staining, anti-MAdCAM-1 and anti-β7integrin were used as primary antibodies and biotin-labeled FITC was employed as a secondary antibody."}, "[1]": {"settings": "subject of milk intolerance; DHNA or its salts; taught by WO03/016544; cited from earlier work"}, "[2]": {"system": "dextran sodium sulfate (DSS) colitis", "assay": "DSS colitis in mice: survival rate and HE-staining of the large intestine", "format": "in vivo, C57/BL6 Mice", "protocol": "C57/BL6 Mice (female, 8 weeks old) were employed. They were bred under SPF conditions, and then used in the test. 2.5% Dextran sodium sulfate (DSS, MW 50,000) was added to drinking water (distilled water) for mice, and the mice were allowed to drink the resultant water freely for 7 days (induction of colitis). Subsequently, DHNA was administered to the mice in the following manner. DHNA was dissolved in dimethyl sulfoxide (DMSO) (0.1 g/0.5 mL). The resultant neat solution, along with ascorbic acid for stabilizing DHNA (1%), was added to drinking water (distilled water) for mice, and the mice were allowed to drink the resultant water freely for 7 days. DHNA concentration was 0.6 mg/kg or 2 mg/kg. Distilled water to which DMSO and ascorbic acid had been added in equal amounts was employed as a control group. Survival rate was that as determined for the mice on day 10 after starting administration of DHNA. The large intestine was removed from each mouse, and fixed with periodate-lysine-paraformaldehyde (PLP), whereby frozen slices were prepared. Through use of the thus-obtained frozen sections, immunohistochemical staining using labeled streptavidin-biotin (LSAB) and HE-staining were performed. In the immunohistochemical staining, anti-MAdCAM-1 and anti-β7integrin were used as primary antibodies and biotin-labeled FITC was employed as a secondary antibody."}, "Bifidobacterium bifidum": {"system": "Bifidobacterium bifidum", "settings": "taught by WO03/016544; cited from earlier work"}, "MAdCAM-1": {"system": "MAdCAM-1", "assay": "Immunohistochemical staining (LSAB) of large intestine sections, DSS colitis, anti-MAdCAM-1", "format": "in vivo, C57/BL6 Mice", "settings": "large intestine frozen sections, DHNA administration group", "protocol": "as §1, §2, §3, §4"}}}
{"molecule": "O=C(O)c1cc(O)c2ccccc2c1O", "note": "[DHNA, 1,4-dihydroxy-2-naphthoic acid]", "values": [{"measurement": "β7 positive cells (immunohistochemical staining)", "setting": "β7 positive cells", "result": "reduced"}, {"measurement": "Abdominal discomfort after ingestion of milk", "setting": "[1]", "result": "mitigate abdominal discomfort"}, {"measurement": "Survival rate", "setting": "[2]; day 10 after starting the test, DHNA 0.6 mg/kg or 2 mg/kg in drinking water for 7 days after 2.5% DSS for 7 days, versus control group", "result": "significantly high"}, {"measurement": "HE-staining findings: ulcer and erosion in the epithelium, cellular infiltration, submucosal thickening", "setting": "[2]; large intestine, DHNA administration group versus control group", "result": "suppression of the above conditions was observed"}, {"measurement": "Development of DSS enteritis", "setting": "[2]; overall conclusion, by suppressing infiltration of activated immunocytes", "result": "suppress development of DSS enteritis"}, {"measurement": "Proliferation of Bifidobacterium bifidum", "setting": "Bifidobacterium bifidum", "result": "stimulating proliferation"}, {"measurement": "Expression of adhesion molecule MAdCAM-1", "setting": "MAdCAM-1", "result": "suppressed"}]}
